In one assay the target is PolQ (1-899) (Homo sapiens (Human), UniProt O75417). The assay can be described thus: PolQ ATPase assay (ADP-Glo). The class given is biochemical.
PolQ (1-899), sequence (O75417 1-899): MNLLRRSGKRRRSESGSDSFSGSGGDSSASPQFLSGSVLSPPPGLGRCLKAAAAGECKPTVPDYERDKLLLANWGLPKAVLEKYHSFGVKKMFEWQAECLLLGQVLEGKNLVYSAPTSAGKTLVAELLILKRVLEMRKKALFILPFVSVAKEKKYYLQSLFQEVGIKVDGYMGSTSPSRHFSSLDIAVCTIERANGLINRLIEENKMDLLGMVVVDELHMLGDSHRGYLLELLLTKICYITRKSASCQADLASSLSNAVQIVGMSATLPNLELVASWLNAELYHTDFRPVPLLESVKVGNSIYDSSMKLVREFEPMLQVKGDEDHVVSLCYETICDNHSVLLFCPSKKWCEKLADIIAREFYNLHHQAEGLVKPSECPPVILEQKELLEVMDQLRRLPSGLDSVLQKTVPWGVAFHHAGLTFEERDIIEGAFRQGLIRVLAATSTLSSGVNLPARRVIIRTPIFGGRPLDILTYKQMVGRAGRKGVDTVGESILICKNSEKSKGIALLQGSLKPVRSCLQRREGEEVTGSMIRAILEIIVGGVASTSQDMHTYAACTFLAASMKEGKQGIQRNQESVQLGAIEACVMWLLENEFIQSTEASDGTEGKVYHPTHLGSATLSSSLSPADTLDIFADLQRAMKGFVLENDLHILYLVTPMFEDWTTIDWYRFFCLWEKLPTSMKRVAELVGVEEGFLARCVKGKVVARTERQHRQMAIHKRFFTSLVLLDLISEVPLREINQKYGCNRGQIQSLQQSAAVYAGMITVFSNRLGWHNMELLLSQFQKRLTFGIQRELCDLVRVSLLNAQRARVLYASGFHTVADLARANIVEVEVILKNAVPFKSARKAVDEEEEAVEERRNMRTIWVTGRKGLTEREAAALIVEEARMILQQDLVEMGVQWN
Details: not given
The procedure:
The ability of the compounds of the present disclosure to inhibit ATPase activity of PolQ (1-899) was determined using the assay described below.
PolQ ATPase activity was determined by ADP-Glo assay. 10-point dilution series of compounds were used in a 384 well format for the inhibition assays. PolQ (1-899) (1 nM) in assay buffer (20 mM Tris HCl (pH 8.0), 80 mM KCl, 10 mM MgCl2, 1 mM DTT, 0.01% BSA, 0.01% Tween, 5% glycerol) was transferred to the test wells (20 uL), except the low control wells (20 μL of assay buffer was added to the low control wells). The plate was then incubated at room temperature for 30 min. An equal volume (20 μL) of 100 μM ATP, 150 nM ssDNA containing 50 thymine bases in assay buffer was added to all the test wells. The plates were covered and left to incubate for 60 min. at room temperature before the addition of the ADP Glo detection reagents. After 60 min. incubation, transfer 5 μL reaction mix to another 384-well plate and add 5 μL ADP Glo and plates incubated for 60 min. before addition of 10 μL kinase detection reagent. After the addition of the kinase detection reagent, the plates were covered and incubated for 60 min. and read luminescence on Envision
Percent inhibition was calculated as follows:
[formula] • where “Max” is the high control (DMSO) and “Min” is the no enzyme control.
IC50 values were calculated using a four-parameter logistic curve fit using the following formula: […]
IC50 values were determined by fitting the data to the standard 4 parameters with Hill Slope using GraphPad Prism software.
Broadly, the IC50 is the concentration at which inhibition is half-maximal. A high value points to lower potency. For `COc1ccccc1-c1cc(C)ncc1C(=O)Nc1nn(CCCCO)c(=O)s1` [Example 24, N-(4-(4-Hydroxybutyl)-5-oxo-4,5-dihydro-1,3,4-thiadiazol-2-yl)-4-(2-methoxyphenyl)-6-methylnicotinamide], the IC50 was in the range of 10 to 100 nM.
Still for that read-out and setting: in the case of `COc1cnc(Cl)cc1-c1cc(C)ncc1C(=O)Nc1nn(CCCCO)c(=O)s1` [Example 29, 2′-Chloro-N-(4-(4-hydroxybutyl)-5-oxo-4,5-dihydro-1,3,4-thiadiazol-2-yl)-5′-methoxy-6-methyl-[4,4′-bipyridine]-3-carboxamide] it was 10 to 100 nM.

The assay is the same for the next values; noted with them: inhibition of ATPase activity of PolQ (1-899), 1 nM enzyme, 100 μM ATP, 150 nM ssDNA, ADP-Glo.
`COc1ccc(Cl)cc1-c1cc(C)ncc1C(=O)Nc1nn(CCCCO)c(=O)s1` [Example 25, 4-(5-Chloro-2-methoxyphenyl)-N-(4-(4-hydroxybutyl)-5-oxo-4,5-dihydro-1,3,4-thiadiazol-2-yl)-6-methylnicotinamide]: the IC50 is less than 10 nM.
In the case of `COc1ccc(C(F)(F)F)c(F)c1-c1cc(C)ncc1C(=O)Nc1nn(CCCCO)c(=O)s1` [Example 27, 4-(2-Fluoro-6-methoxy-3-(trifluoromethyl)phenyl)-N-(4-(4-hydroxybutyl)-5-oxo-4,5-dihydro-1,3,4-thiadiazol-2-yl)-6-methylnicotinamide], the 50% inhibitory concentration (IC50) is less than 10 nM.
Still for that read-out and setting: next, `COc1ccc(C)c(F)c1-c1cc(C)ncc1C(=O)Nc1nn(CCCCO)c(=O)s1` [Example 28, 4-(2-Fluoro-6-methoxy-3-methylphenyl)-N-(4-(4-hydroxybutyl)-5-oxo-4,5-dihydro-1,3,4-thiadiazol-2-yl)-6-methylnicotinamide]: less than 10 nM; `COc1ccc(Cl)c(F)c1-c1cc(-c2ccn(C)n2)ncc1C(=O)Nc1nn(CCCCO)c(=O)s1` [Example 30, 4-(3-Chloro-2-fluoro-6-methoxyphenyl)-N-(4-(4-hydroxybutyl)-5-oxo-4,5-dihydro-1,3,4-thiadiazol-2-yl)-6-(1-methyl-1H-pyrazol-3-yl)nicotinamide]: less than 10 nM.
